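Protocol summary: plate cells (96-well), add compound at 5 concentrations, incubate 48 h, interpolate endpoints linearly. Abbreviation: GI50, concentration required for 50% inhibition of growth.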 Activity calls are given as the source filed them. Rule as the data show it: active = GI50 up to about 1.1 µM and inactive = higher.
Tests used:
Assay in all cases: DTP human tumour cell line panel, 48 h
786-0 = system: 786-0
A549 = system: A549
HOP-92 = system: HOP-92
HT-29 = system: HT-29
IGROV-1 = system: IGROV-1
KM-20L2 = system: KM-20L2
Malme-3M = system: Malme-3M
NCI-H226 = system: NCI-H226
NCI-H23 = system: NCI-H23
NCI-H522 = system: NCI-H522
OVCAR-5 = system: OVCAR-5
SF-295 = system: SF-295
SK-MEL-28 = system: SK-MEL-28
SK-MEL-5 = system: SK-MEL-5
SN12C = system: SN12C
SW-620 = system: SW-620
U-251 = system: U-251
A498 = system: A498

Measured: GI50

OCCCCOC(c1ccccc1)(c1ccccc1)c1ccccc1
inactive: 786-0 > 100 µM | A549 > 100 µM | HOP-92 > 100 µM | HT-29 > 100 µM | IGROV-1 > 100 µM | KM-20L2 > 100 µM | Malme-3M > 100 µM | NCI-H226 > 100 µM | NCI-H23 > 100 µM | NCI-H522 > 100 µM | OVCAR-5 > 100 µM | SF-295 > 100 µM | SK-MEL-28 > 100 µM | SK-MEL-5 > 100 µM | SN12C > 100 µM | SW-620 > 100 µM | U-251 > 100 µM

C=CCNC1=C(C(=O)OCC)C(=O)CO1
inactive: 786-0 > 100 µM | A498 > 100 µM | A549 > 100 µM | HOP-92 > 100 µM | HT-29 > 100 µM | IGROV-1 > 100 µM | KM-20L2 > 100 µM | Malme-3M > 100 µM | NCI-H226 > 100 µM | NCI-H23 > 100 µM | NCI-H522 > 100 µM | OVCAR-5 > 100 µM | SF-295 > 100 µM | SK-MEL-28 > 100 µM | SK-MEL-5 > 100 µM | SN12C > 100 µM | SW-620 > 100 µM | U-251 > 100 µM

c1ccc2[nH]c(-c3nc4ccccc4o3)nc2c1
inactive: 786-0 > 100 µM | A498 > 100 µM | A549 > 100 µM | HOP-92 > 100 µM | HT-29 > 100 µM | IGROV-1 46.5 µM | KM-20L2 > 100 µM | Malme-3M > 100 µM | NCI-H226 86.3 µM | NCI-H23 > 100 µM | NCI-H522 35.1 µM | OVCAR-5 > 100 µM | SF-295 > 100 µM | SK-MEL-28 > 100 µM | SK-MEL-5 62.8 µM | SN12C > 100 µM | U-251 > 100 µM

CC(C(=O)c1ccccc1)C1(O)C(=O)Nc2ccccc21 (stereo unspecified)
inactive: 786-0 > 100 µM | A498 > 100 µM | A549 > 100 µM | HOP-92 > 100 µM | HT-29 > 100 µM | IGROV-1 > 100 µM | KM-20L2 > 100 µM | Malme-3M > 100 µM | NCI-H226 > 100 µM | NCI-H23 > 100 µM | NCI-H522 > 100 µM | OVCAR-5 > 100 µM | SF-295 > 100 µM | SK-MEL-28 > 100 µM | SK-MEL-5 > 100 µM | SN12C > 100 µM | SW-620 > 100 µM | U-251 > 100 µM

COc1ccc2nc(NC(=O)C(=O)C(C(=O)c3ccccc3-c3ccccc3)C3OC(=O)c4ccccc43)sc2c1 (stereo unspecified)
inactive: 786-0 15.6 µM | A498 17.7 µM | A549 23.8 µM | HOP-92 16.5 µM | HT-29 36.6 µM | IGROV-1 25.8 µM | KM-20L2 25.1 µM | Malme-3M 12.1 µM | NCI-H226 5.27 µM | NCI-H23 13.8 µM | NCI-H522 9.89 µM | OVCAR-5 18.7 µM | SF-295 27.2 µM | SK-MEL-28 20.5 µM | SK-MEL-5 16.2 µM | SW-620 23.8 µM | U-251 12.8 µM

CCCCN(CCCC)/C(=N\C#N)NCc1ccccc1
inactive: 786-0 19 µM | A498 18.1 µM | A549 25.8 µM | HOP-92 14.4 µM | HT-29 16.5 µM | IGROV-1 24.8 µM | KM-20L2 22 µM | Malme-3M 32.4 µM | NCI-H226 24.3 µM | NCI-H23 27.1 µM | NCI-H522 3.95 µM | OVCAR-5 26.4 µM | SF-295 14.3 µM | SK-MEL-5 21.9 µM | SN12C 18.8 µM | SW-620 15.8 µM | U-251 15.3 µM

O=C(O)CCc1coc2ccc(O)cc12
inactive: 786-0 > 100 µM | A498 > 100 µM | A549 > 100 µM | HOP-92 75.7 µM | HT-29 > 100 µM | IGROV-1 > 100 µM | KM-20L2 > 100 µM | NCI-H23 > 100 µM | SF-295 > 100 µM | SK-MEL-28 > 100 µM | SK-MEL-5 > 100 µM | SN12C > 100 µM | SW-620 > 100 µM | U-251 > 100 µM

C=CCC(C)(C(=O)NCCC)C(=O)c1ccccc1O (stereo unspecified)
inactive: 786-0 > 100 µM | A498 > 100 µM | A549 > 100 µM | IGROV-1 > 100 µM | KM-20L2 > 100 µM | Malme-3M > 100 µM | NCI-H226 > 100 µM | NCI-H522 > 100 µM | SK-MEL-28 > 100 µM | SK-MEL-5 > 100 µM | SN12C > 100 µM | SW-620 > 100 µM | U-251 > 100 µM

COc1ccc2c(c1)C1(C=N2)CCN(C(C)=O)CC1
inactive: 786-0 > 100 µM | A498 > 100 µM | A549 > 100 µM | HOP-92 87.9 µM | HT-29 > 100 µM | IGROV-1 > 100 µM | KM-20L2 > 100 µM | Malme-3M > 100 µM | NCI-H23 > 100 µM | OVCAR-5 > 100 µM | SF-295 > 100 µM | SK-MEL-28 > 100 µM | SK-MEL-5 > 100 µM | SW-620 > 100 µM | U-251 > 100 µM

— ChEMBL document CHEMBL1201862, “PubChem BioAssay data set” (2004)
